Assay results reported in PubChem BioAssay (NCI).
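48-hour exposure; five concentrations; linearly interpolated endpoints. TGI is the concentration that stops growth completely.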

Columns and labels:
Assay in all cases: NCI-60 cell line screen, 48 h
[1] = system: NCI-H226 lung
[2] = system: K-562 leukemia
[3] = system: LOX IMVI melanoma
[4] = system: HOP-62 NSCLC
[5] = system: DMS 114 small cell lung
[6] = system: EKVX NSCLC
[7] = system: M19-MEL melanoma
[8] = system: TK-10 renal
[9] = system: U251 CNS
[10] = system: HCC-2998 colon
[11] = system: NCI-H23 lung
[12] = system: SF-295 CNS
[13] = system: MOLT-4 leukemia
[14] = system: HL-60(TB) leukemia
[15] = system: IGROV1 ovarian
[16] = system: HT29 colon
[17] = system: COLO 205 colon
[18] = system: RXF 393 renal
[19] = system: HOP-92 NSCLC
[20] = system: UACC-62 melanoma
[21] = system: HCT-116 colon
[22] = system: SK-OV-3 ovarian
[23] = system: SR leukemia
[24] = system: SK-MEL-28 melanoma
[25] = system: UO-31 renal
[26] = system: CCRF-CEM leukemia
[27] = system: RPMI-8226 leukemia
[28] = system: SNB-75 CNS
[29] = system: M14 melanoma
[30] = system: OVCAR-8 ovarian
[31] = system: LXFL 529 NSCLC
[32] = system: NCI-H460 lung
[33] = system: SF-268 CNS
[34] = system: OVCAR-3 ovarian
[35] = system: HCT-15 colon
[36] = system: SW-620 colon
[37] = system: MALME-3M melanoma
[38] = system: SK-MEL-5 melanoma
[39] = system: SK-MEL-2 melanoma
[40] = system: KM12 colon
[41] = system: KM20L2 colon
[42] = system: OVCAR-5 ovarian
[43] = system: SN12C renal
[44] = system: ACHN renal
[45] = system: DLD-1 colon
[46] = system: UACC-257 melanoma
[47] = system: DMS 273 small cell lung

Measured: TGI

COc1c2c(cc3c(CCc4ccccc4)cc(=O)oc13)CCC(C)(C)O2
> 100 µM: [1] | [2] | [3] | [4] | [5] | [6] | [7] | [8] | [9] | [10] | [11] | [12] | [13] | [14] | [15] | [16] | [17] | [18] | [19] | [20] | [21] | [22] | [23] | [24] | [25] | [26] | [27] | [28] | [29] | [30] | [31] | [32] | [33] | [34] | [35] | [36] | [37] | [38] | [39] | [40] | [41] | [42] | [43] | [44] | [45] | [46] | [47]
